Laboratory results taken from patent US20100305150A1, “TUBEROUS SCLEROSIS TREATMENT” (priority 2006, published 2010).

Assays:
[1] = system: Tsc1−/− and Tsc2−/− and control MEF cell lines; experiment: Growth of Tsc1−/−, Tsc2−/− and control MEF cell lines, MTT assay; format: cell-based; conditions: Tsc1 null and control MEF cell lines
Source text: MEF cell lines are generated in which there is loss of either Tsc1 or Tsc2 and which have a profound decrease in signaling through Akt. Decreased Akt activation may be seen in response to all stimuli, including serum, PDGF, EGF, insulin, and IGF1. […] In addition, over-expression of PDGFRα by short or long-term transfection leads to increased Akt phosphorylation and stimulation in response to multiple growth factors.
Signaling in Tsc 1 or Tsc 2 null MEFs in response to IGF1 in combination with a Compound A may be explored. Wortmannin may be used as an […].
Growth of Tsc1−/− and Tsc2−/− and control MEF cell lines in serum may be assessed in triplicate wells of cells plated at uniform density using the MTT assay. Growth responses are normalized individually for each cell line, to growth in the absence of any stimulation.

[2] = system: NF1 deficient cell or animals (mice) models; experiment: Activity in neurofibromatosis, NF1 deficient cell or animal models
Source text: Activity in neurofibromatosis may be determined in NF1 deficient cell or animals (mice) models, e.g. analogously to TSC deficient cell or animals (mice) models.

[3] = system: kidney and liver tumors in Tsc2+/− mice; experiment: Treatment trial in Tsc2+/− mouse model of Tsc with carcinogen ENU (1 month study); format: in vivo; conditions: ENU to accelerate kidney tumor formation
Procedure: (§1) Also trials of treatment with a Compound A in mouse models of Tsc may be carried out (1 month study). A first trial is performed in the Tsc1+/− mice, in which there is a sex effect on tumor development, so that female mice are studied only. A second trial is performed in Tsc2+/− mice, in which the use of the carcinogen ENU is performed to enhance and accelerate the rate of tumor formation in the kidney.

[4] = system: kidney and liver tumors in Tsc1+/− mice; experiment: Treatment trial in Tsc1+/− mouse model of Tsc (1 month study); format: in vivo; conditions: female mice only
Procedure: as §1

CO[C@H]1C[C@@H]2CC[C@@H](C)[C@@](O)(O2)C(=O)C(=O)N2CCCC[C@H]2C(=O)O[C@H]([C@H](C)C[C@@H]2CC[C@@H](OCCO)[C@H](OC)C2)CC(=O)[C@H](C)/C=C(\C)[C@@H](O)[C@@H](OC)C(=O)[C@H](C)C[C@H](C)/C=C/C=C/C=C/1C [Compound A, 40-O-(2-hydroxyethyl)-rapamycin]
growth response of the cells to IGF1 ([1]; IGF1 stimulation): blocks any growth response of the cells to IGF1
growth of the cell lines (MTT assay) ([1]; serum or IGF1 stimulation, all conditions): significantly reduces growth under all conditions
activity in neurofibromatosis assays [2]: shows activity
reduction of kidney and liver tumors [3]: dramatic effect in reducing kidney and liver tumors
reduction of kidney and liver tumors [4]: dramatic effect in reducing kidney and liver tumors
